Measurements: patent US9999611B2, “SIRT 1 activator including syringaresinol” (AMOREPACIFIC CORPORATION, priority 2011, dated 2018)

How the values were obtained:
[1] = test system: gingival fibroblasts; assay: Cellular activity promoting effect in gingival fibroblasts (MTT assay); type: cell-based, human; settings: cigarette smoke condensate 100 μg/mL, syringaresinol 50 or 100 μg/mL, 2 days, FIG. 3
Protocol: Gingival fibroblasts subcultured for 5-6 times in substantially the same manner as in Test Example 1 were seeded onto a 24-well plate, with 1×10^4 cells per well. After culturing for 1 day, cigarette smoke condensate was added with a concentration of 100 μg/mL in substantially the same manner as in Test Example 1 and the syringaresinol obtained in Example was added after dissolving in DMSO to a concentration of 50 or 100 μg/mL. A control group was treated with DMSO corresponding to 1/1000 of the volume of the culture medium. Also, a group which was treated with neither the cigarette smoke condensate nor the test substance was prepared. After culturing for 2 days and adding 300 μL of 3-(4,5-dimethylthiazol-2-yl)-2,5-diphenyltetrazolium bromide (MTT; Sigma, USA) dissolved in physiological saline per each well, the cells were cultured for 4 hours. After removing the culture medium and dissolving formazan crystals by adding 200 μL of dimethyl sulfoxide (DMSO; Junsei, Japan), absorbance was measured at 540 nm using an ELISA reader (Spectra MAX 250, Molecular Devices Co., USA). Each experiment was repeated 3 times.

[2] = test system: PGC-1β; assay: PGC-1β mRNA expression promoting effect (qRT-PCR); type: cell-based, human; settings: 50 μM, vs DMSO control, FIG. 13
Protocol: Human adipocytes, hepatocytes and myocytes were treated with 50 μM syringaresinol in substantially the same manner as in Test Example 3 and washed with PBS. Then, RNA and cDNA were sequentially extracted therefrom. The mRNA expression of the energy metabolism-related genes PGC-1α and PGC-1β was analyzed by qRT-PCR. A result of comparing the expression of PGC-1α and PGC-1β with a control group treated only with DMSO is shown in FIG. 12 and FIG. 13, respectively.

[3] = test system: SIRT1; assay: SIRT1 expression promoting effect in human PBMCs (qRT-PCR); type: cell-based; settings: human PBMCs, 20, 50 or 100 μM, 24 hours; FIG. 17
Protocol: The SIRT1 gene expression promoting effect of syringaresinol in human PBMCs was evaluated as follows.
Human PBMCs were purchased from Zen-Bio (Research Triangle Park, N.C., USA) and cultured in a 5% CO2 incubator using a PBMC medium (Zen-Bio) until 80% confluency. Then, the cells were treated for 24 hours with syringaresinol dissolved in DMSO to a concentration of 20, 50 or 100 μM. A negative control group was treated with DMSO corresponding to 1/1000 of the volume of the culture medium. The cells treated with each sample were washed with PBS and RNA was extracted therefrom using the TRIzol reagent (Invitrogen). Then, cDNA was synthesized from the extracted RNA (5 μg) using a reverse transcription system (Fermentas, Glen Burnie, Md., USA). The expression pattern of the SIRT1 and GAPDH genes was monitored by qRT-PCR using the synthesized cDNA and predesigned primers and probes. qRT-PCR reaction and analysis were carried out using the Rotor-Gene 3000 system (Corbett Research, Sydney, Australia).

COc1cc(C2OCC3C(c4cc(OC)c(O)c(OC)c4)OCC23)cc(OC)c1O (centres unmarked) [syringaresinol]
cellular activity (MTT, absorbance at 540 nm) [1]: recovered cellular activity, which had been decreased due to smoking, to a level substantially comparable to the normal level
expression of PGC-1β ([2]; human adipocytes): increased the expression
expression of PGC-1β ([2]; human hepatocytes): increased the expression
expression of PGC-1β ([2]; human myocytes): increased the expression
SIRT1 expression [3]: increased SIRT1 expression in PBMCs in a concentration-dependent manner
